# From ChEMBL document CHEMBL3301361, “Experimental in vitro DMPK and physicochemical data on a set of publicly disclosed compounds”
# Key:
# [1] = physchem; details: octan-1-ol/water, pH 7.4, LogD7.4
# [2] = physchem; details: pH 7.4 buffer
logD [1],solubility thermodynamic [2],SMILES
2.69,162 µM,Cn1cnc(-c2ccccc2)c1-c1nc2c(N)ncnc2s1
2.7,26.9 µM,Nc1ccc2cccc(Nc3ncccn3)c2n1
2.6,204 µM,CCCc1c(O)c(O)c(C(=O)O)c2cc(Cc3ccccc3)c(C)cc12
2.78,5.1 µM,Clc1n[nH]c2cccc(Nc3ccnc(Nc4cc(N5CCOCC5)cc(N5CCOCC5)c4)n3)c12
2.83,5.9 µM,CS(=O)(=O)c1cccc(Nc2nccc(Nc3cccc4c3OCO4)n2)c1
2.88,52.5 µM,Clc1ccc(-c2nnc3cccc(Cl)n23)c(Cl)c1
2.7,1.6 µM,CCn1c(=O)ccc2cnc(Nc3ccc(OC)c(OC)c3)nc21
2.66,115 µM,Clc1cccc(Cl)c1-c1nnc2cccc(Cl)n12
2.89,100 µM,Cc1sc2ncnc(SCC(=O)N3CCCC3)c2c1C
2.69,759 µM,NCC(O)(c1ccc(Cl)cc1)c1ccc(Cl)cc1
2.6,5.4 µM,CN1CCN(CC(=O)Nc2ccc(-c3cccn4c(=O)cc(N5CCOCC5)nc34)c3sc4ccccc4c23)CC1
2.78,324 µM,c1ccc(Nc2ccnc3ccccc23)cc1
2.75,955 µM,Cc1sc(N)nc1-c1ccccc1
2.72,190 µM,O=C(c1ccc(Cl)cc1)C1CCN(C(=O)C2CC2)CC1
2.8,302 µM,COCCN(c1ccnc(Nc2cc(N3CCOCC3)cc(N3CCOCC3)c2)n1)c1cc(CO)ccc1C
2.67,372 µM,Cc1c(-c2ccc3c(c2)OCO3)c(=O)n(C[C@H](N)c2ccccc2)c(=O)n1Cc1c(F)cccc1F
2.78,44.7 µM,O=c1cc(N2CCOCC2)nc2c3ccccc3ccn12
2.8,0.9 µM,COc1cc(N2CCN(C(C)=O)CC2)ccc1Nc1ncc(C#N)c(-c2cnc3ccccn23)n1
2.82,8.5 µM,CC(=O)N1CCN(c2ccc(Nc3nccc(-c4cnc5ccccn45)n3)cc2)CC1
2.67,4.5 µM,Nc1nc(N)c(C(=O)Nc2ccccn2)nc1Cl

logD [1],solubility thermodynamic [2],SMILES
2.8,537 µM,CN(C(=O)c1ccncc1)C1CCN(CCC(c2ccccc2)c2ccccc2)CC1
2.68,468 µM,CCOC(=O)c1ccc(COCC2CCN(c3ccc(C)nn3)CC2)cc1
2.7,15.8 µM,CCOC(=O)c1ccc(OCCC2CN(c3ccc(C)nn3)CCO2)cc1 (stereo unspecified)
2.74,118 µM,Clc1ccc(CN(Cc2ccc(Cl)cc2)c2nnn[nH]2)cc1
2.8,12.3 µM,Cc1nc(S(C)(=O)=O)ccc1Nc1ncnc(OC2CCN(C(=O)OC(C)C)CC2)c1C
2.75,603 µM,CCN1C(=O)N(C)c2cnc(Nc3ccc(C(=O)NC4CCN(C)CC4)cc3OC)nc2N1C1CCCC1
2.89,26.9 µM,COc1cc2c(Nc3ncc(CC(=O)Nc4cccc(F)c4)s3)ncnc2cc1OCCCN1CCC(CO)CC1
2.79,37.2 µM,CCc1[nH]nc(NC(=O)Cc2ncc(Oc3ccnc4cc(OC)c(OC)cc34)cc2OC)c1C
2.8,4.6 µM,COc1cccc(Nc2nnc(C(=O)Nc3ccc(N4CCOCC4)nc3)o2)c1
2.77,1120 µM,CC(C)N1CCO[C@@H](CN2CCN(C(=O)Nc3ccc(Cl)c(Cl)c3)CC2)C1
2.74,550 µM,CC(C)Cn1c(=O)n(C)c(=O)c2c(C(=O)N3CC[C@@H](O)C3)c(Cc3ccccc3C(F)(F)F)sc21
2.81,550 µM,CCCOc1nc(N2CCC[C@@H](CC(=O)O)C2)ccc1C(=O)NC1CCCCC1
2.59,1380 µM,CN1CCC(COc2cc(OC3CCOCC3)c3c(Nc4c(Cl)ccc5c4OCO5)ncnc3c2)CC1
2.7,10 µM,COc1cc2c(NC(=O)Nc3c(Cl)cccc3Cl)ncnc2cc1OCC1CCN(C)CC1
2.66,2.7 µM,CN1CCN(S(=O)(=O)c2ccc(-c3cnc(N)c(C(=O)Nc4cccnc4)n3)cc2F)CC1
2.8,1.1 µM,CS(=O)(=O)Cc1cc(N2CCOCC2)nc(-c2cccc3cc[nH]c23)n1
2.6,8.9 µM,CS(=O)(=O)C1(c2cc(N3CCOCC3)nc(-c3ccccc3)n2)CC1
2.58,468 µM,CS(=O)(=O)c1ccc([C@@H](CC2CCCC2)C(=O)Nc2cnc([C@H](O)CO)cn2)cc1Cl
2.87,170 µM,O=C(COc1ccccc1)c1ccccc1
2.82,95.5 µM,C[C@@H](Oc1cccc2ncnc(Nc3ccc4c(cnn4Cc4ccccn4)c3)c12)C(=O)N1CCOCC1

logD [1],solubility thermodynamic [2],SMILES
2.6,15.8 µM,Nc1n[nH]c2nnc(-c3ccccc3)c(-c3ccccc3)c12
2.57,26.3 µM,c1ccc(-c2n[nH]cc2-c2ccnc3ccccc23)nc1
2.72,339 µM,NC1(Cc2ccc(Cl)cc2)CCN(c2ncnc3[nH]ccc23)CC1
2.58,97.7 µM,Cc1sc(N2CCN(C)CC2)nc1CCOc1ccc(C[C@H](Nc2ccccc2C(=O)c2ccccc2)C(=O)O)cc1
2.76,407 µM,Cc1c(-c2ccccc2F)c(=O)n(C[C@H](N)c2ccccc2)c(=O)n1Cc1c(F)cccc1F
2.64,234 µM,COc1cc2ncnc(Nc3cccc(Cl)c3F)c2cc1CN1CCC[C@H]1CC(N)=O
2.7,3.6 µM,COc1cc2c(Nc3cnc(NC(=O)c4ccccc4)nc3)ncnc2cc1OCCCN1CCOCC1
2.71,1.1 µM,CNC(=O)Nc1cc(-c2ccccc2)sc1C(N)=O
2.6,51.3 µM,NS(=O)(=O)c1cccc(Nc2nccc(Nc3cccc4[nH]ncc34)n2)c1
2.89,295 µM,C[C@@H](Oc1cccc2ncnc(Nc3ccc4c(cnn4Cc4ccccn4)c3)c12)C(=O)N(C)C
2.87,12 µM,Clc1cc(Nc2ncnc3[nH]nc(OCCN4CCCC4)c23)ccc1OCc1ccccn1
2.81,151 µM,C[C@@H](Oc1cccc2ncnc(Nc3ccc4c(cnn4Cc4cscn4)c3)c12)C(=O)N1CCOCC1
2.81,21.9 µM,COc1cc2ncc(C(N)=O)c(Nc3ccccc3F)c2cc1OC
2.66,93.3 µM,COc1cc(Nc2cc(Oc3cccnc3)ccn2)cc(OC)c1OC
2.84,339 µM,O=C1NC(=O)C(Cc2cccc(Oc3ccccc3)c2)S1 (stereo unspecified)
2.8,24.5 µM,O=c1[nH]nc(Cc2ccccc2)c2ccccc12
2.85,13.2 µM,Cn1c(C#N)ccc1-c1ccc2c(c1)C(C)(C)OC(=O)N2
2.85,417 µM,Cc1ccccc1Nc1ncnc2ccccc12
